Laboratory results published in patent US11535597B2, “Photoreactive ligands and uses thereof” (The Scripps Research Institute, priority 2017, dated 2022).

Test system: proteins in HEK293T cells
Assay: MS-based mapping of FFF probe-modified peptides (isoTOP, sites of labeling)
Assay type: binding, human
Details: for Labeled Peptide (residues) of NPM1 Nucleophosmin: P06748, PDB 2P1B
Procedure: Preparation and analysis was adapted from methods previously reported. In brief, for global mapping of fragment probe-modified peptides, separate 10 cm dishes of cells were treated with probes (200-250 μM) in 3.0 mL of DMEM (serum-free) and (if applicable) competitor ligands, proteomes harvested and subjected to click chemistry conditions with either light or heavy isotopically labeled biotin-TEV-azide (10 μL of 5 mM stocks in DMSO, final concentration=100 μM), TCEP, ligand and CuSO4 as detailed above. The samples were allowed to react for 1 h at which point the samples were centrifuged (16,000 g, 5 min, 4° C.). The resulting pellets were sonicated in ice-cold methanol (500 μL) and the resuspended light- and heavy-labeled samples were then combined and centrifuged (16,000 g, 5 min, 4° C.). The pellets were then solubilized in PBS containing 1.2% SDS (1 mL) with sonication and heating (5 min, 95° C.). Samples were transferred to falcon tubes containing DPBS (5 mL), to which a 100 μL of streptavidin-agarose beads slurry was added. After incubation, the beads (3 hr) were pelleted by centrifugation (1,400 g, 3 min) and were washed (2×10 mL PBS and 2×10 mL water). The beads were transferred to eppendorf tubes with 1 mL DPBS, centrifuged (1,400 g, 3 min), and resuspended in PBS containing 6 M urea. To this was added 10 mM DTT (25 μL of a 200 mM stock in water) and the beads were incubated at 65° C. for 15 mins. 20 mM iodoacetamide (25 μL of a 400 mM stock in water) was then added and allowed to react at 37° C. for 30 mins with shaking. The bead mixture was diluted with 900 μL PBS, pelleted by centrifugation (1,400 g, 3 min), and resuspended in 200 μL 2M urea (DPBS) containing trypsin and CaCl2 as described above. The beads were separated from the digest by centrifugation (1,000 g, 1 min), washed (2×1 mL PBS and 2×1 mL water) and then transferred to fresh eppendorfs with 1 mL water. The washed beads were washed once further in 150 μL TEV buffer (50 mM Tris, pH 8, 0.5 mM EDTA, 1 mM DTT) by centrifugation (1,400 g, 3 min) and the resuspended in 150 μL TEV buffer. 5 μL TEV protease (80 μM) was added and the reactions were rotated overnight at 29° C. The TEV digest was separated from the beads by centrifugation (1,400 g, 3 min) and the beads were washed once with water (100 μL). The samples were then acidified to a final concentration of 5% (v/v) formic acid and stored at −80° C. prior to analysis.
The resulting probe-modified peptides were collected for MS analysis, which was performed as described above with differences in the salt bumps applied in the chromatographic gradients which in this case were 0%, 30%, 60%, 90% and 100% NH4OAc (500 μM). The protein identification searches of the MS data were performed with the following changes applied to identify the peptides modified with the corresponding fragment probe and the cleaved TEV tag. All amino acids were considered as possible residues for modification. To facilitate the computational searches, sets of up to 3 amino acids were searched using ProLuCID and filtered with DTASelect as described above. […] The isoTOP ratios for probe labeled peptides were quantified using the in-house software CIMAGE.
For each protein in the site-of-labeling dataset, the UniProtKB accession number was used to map and collect relevant structures from the RCSB Protein Data Bank (PDB) fulfilling the following criteria: structures determined by X-ray crystallography, wild-type protein, Homo sapiens as the sole source organism. […] Fpocket 2.0 was used to detect potential binding pockets for the resultant structures with all parameters set at recommended default. Pockets with volume less than 500 Å^3 were removed from output prior to further analysis. Residues surrounding fpocket predicted binding pockets for each protein were collected to determine the number of residues overlapping with isoTOP peptides.

## C#CCCC1(CCC(=O)N2CCCCC2Cc2ccccc2)N=N1 (stereo not drawn) [probe 13, 1-(2-Benzylpiperidin-1-yl)-3-(3-(but-3-yn-1-yl)-3H-diazirin-3-yl)propan-1-one]
Accession Q9BQ67, residues of probe-labeled peptide, family Uncategorized
  Labeled Peptide of GRWD1 Glutamate-rich WD repeat-containing protein 1: 263-287
IMPDH2 Inosine-5-monophosphate dehydrogenase 2, residues of probe-modified peptide
  Labeled Peptide: 110-124
MAPRE1 (Q15691), residues of the probe-labeled peptide
  Labeled Peptide: 223-241
MCM2 (P49736), residues of the probe-labeled peptide
  Labeled Peptide: 797-807
METTL7A (Q9H8H3), residues of the probe-labeled peptide
  Labeled Peptide: 94-105
NTMT1 (Q9BV86), residues of the probe-labeled peptide
  Labeled Peptide: 167-185
NUP155 (O75694), residues of the probe-labeled peptide
  Labeled Peptide: 952-968
OPA1 (O60313), residues of the probe-labeled peptide
  Labeled Peptide: 801-818
Peptide DELHIVEAEAMNYEGSPIK
  Labeled Peptide (residues) of NPM1 Nucleophosmin: 55-73
Peptide MSVQPTVSLGGFEITPPVVLR
  Labeled Peptide (residues) of NPM1 Nucleophosmin: 81-101
P12268 IMPDH2 Inosine-5-monophosphate dehydrogenase 2
  Labeled Peptide: 110-124
P24666 ACP1 Low molecular weight phosphotyrosine protein phosp
  Labeled Peptide: 42-59
P31939 ATIC Bifunctional purine biosynthesis protein PURH
  Labeled Peptide: 178-194
P32119, peptide TDEGIAYR, PDB 1QMV
  Labeled Peptide (residues) of PRDX2 Peroxiredoxin-2: 120-127
Q13867 BLMH Bleomycin hydrolase
  Labeled Peptide: 203-218
Q14240 EIF4A2 Eukaryotic initiation factor 4A-II
  Labeled Peptide: 70-83
Protein ACP1 (P24666), residues of probe-labeled peptide
  Labeled Peptide: 42-59
Protein ACP1 Low molecular weight phosphotyrosine protein phosp, residues of probe-labeled peptide
  Labeled Peptide: 42-59
Protein ANP32A (Q10567), residues of probe-labeled peptide
  Labeled Peptide: 117-132
Protein ANP32A Acidic leucine-rich nuclear phosphoprotein 32 fami, residues of probe-labeled peptide
  Labeled Peptide: 117-132
Protein ANP32B (Q92688), residues of probe-labeled peptide
  Labeled Peptide: 117-132
Protein AP1B1 (Q10567), residues of probe-labeled peptide
  Labeled Peptide: 902-913
Protein ATIC (P31939), residues of probe-labeled peptide
  Labeled Peptide: 178-194
Protein ATIC Bifunctional purine biosynthesis protein PURH, residues of probe-labeled peptide
  Labeled Peptide: 178-194
Protein ATP5F1 (P24539), residues of probe-labeled peptide
  Labeled Peptide: 71-90
Protein ATP6V1B2 (P21281), residues of probe-labeled peptide
  Labeled Peptide: 83-93
Protein ATP6V1BE1 (P36543), residues of probe-labeled peptide
  Labeled Peptide: 200-212
Protein BLMH (Q13867), residues of probe-labeled peptide
  Labeled Peptide: 203-218
Protein BLMH Bleomycin hydrolase, residues of probe-labeled peptide
  Labeled Peptide: 203-218
Protein CALM3 Calmodulin (P62158), residues of probe-labeled peptide
  Labeled Peptide: 128-149
Protein CCT7 T-complex protein 1 subunit eta (Q99832), residues of probe-labeled peptide
  Labeled Peptide: 85-106
Protein COPB1 Coatomer subunit beta (P53618), residues of probe-labeled peptide
  Labeled Peptide: 262-279
Protein CSTF3 Cleavage stimulation factor subunit 3 (Q12996), residues of probe-labeled peptide
  Labeled Peptide: 440-464
Protein DIABLO Diablo homolog, mitochondrial (Q9NR28), residues of probe-labeled peptide
  Labeled Peptide: 124-140
Protein DIABLO Diablo homolog, mitochondrial, residues of probe-labeled peptide
  Labeled Peptide: 124-140
Protein EEF1A1 Elongation factor 1-alpha 1 (P68104), residues of probe-labeled peptide
  Labeled Peptide: 135-146
Protein EEF1G Elongation factor 1-gamma (P26641), residues of probe-labeled peptide
  Labeled Peptide: 379-400
Protein EIF3L Eukaryotic translation initiation factor 3 submit (Q9Y262), residues of probe-labeled peptide
  Labeled Peptide: 404-419
Protein EIF4A2 Eukaryotic initiation factor 4A-II (Q14240), residues of probe-labeled peptide
  Labeled Peptide: 70-83
Protein EIF4A2 Eukaryotic initiation factor 4A-II, residues of probe-labeled peptide
  Labeled Peptide: 70-83
Protein ERH Enhancer of rudimentary homolog (P84090), residues of probe-labeled peptide
  Labeled Peptide: 18-34
Protein ERH Enhancer of rudimentary homolog, residues of probe-labeled peptide
  Labeled Peptide: 18-34
Protein FKBP4 Peptidyl-prolyl cis-trans isomerase (Q02790), residues of probe-labeled peptide
  Labeled Peptide: 190-206
Protein FKBP4 Peptidyl-prolyl cis-trans isomerase FKBP4, residues of probe-labeled peptide
  Labeled Peptide: 190-206
Protein FKBP10 Peptidyl-prolyl cis-trans isomerase FKBP10 (Q96AY3), residues of probe-labeled peptide
  Labeled Peptide: 198-212
Protein KPNA2 Importin subunit alpha-2, residues of the probe-labeled peptide
  Labeled Peptide: 301-315
Protein NTMT1 N-terminal Xaa-Pro-Lys N-methyltransferase 1, residues of the probe-labeled peptide
  Labeled Peptide: 167-185
Protein O43615 TIMM44 Mitochondrial import inner membrane translocase su
  Labeled Peptide: 428-439
Protein P62241 RPS8 40S ribosomal protein S8
  Labeled Peptide: 158-170
Protein P62314 SNRNP40 U5 small nuclear ribonucleoprotein Sm D1
  Labeled Peptide: 67-86
Protein P62888 RPL30 60S ribosomal protein L30
  Labeled Peptide: 58-68
Protein PDCD4 Programmed cell death protein 4 (Q53EL6)
  Labeled Peptide: 246-256
Protein PDCD4 Programmed cell death protein 4, residues of the probe-labeled peptide
  Labeled Peptide: 246-256
Protein PDS5A Sister chromatid cohesion protein PDS5 homolog A (Q29RF7)
  Labeled Peptide: 638-657
Protein PFN1 Profilin-1 (P07737)
  Labeled Peptide: 39-54
Protein PHGDH D-3-phosphoglycerate dehydrogenase (O43175)
  Labeled Peptide: 295-308
Protein PMPCB Mitochondrial-processing peptidase subunit beta (O75439)
  Labeled Peptide: 406-424
Protein PRDX2 Peroxiredoxin-2 (P32119)
  Labeled Peptide: 120-127
Protein PRDX2 Peroxiredoxin-2, residues of the probe-labeled peptide
  Labeled Peptide: 120-127
Protein PRMT1 Protein argine N-methyltransferase 1 (Q99873)
  Labeled Peptide: 380-391
Protein PTPLAD1 3-hydroxyacyl-CoA dehydratase 3 (Q9P035)
  Labeled Peptide: 133-146
Protein Q8N3U4 STAG2 Cohesin subunit SA-2
  Labeled Peptide: 273-290
Protein Q96DI7 SNRNP40 U5 small nuclear ribonucleoprotein 40 kDa protein
  Labeled Peptide: 233-260
Protein Q01082 SPTAN1 Spectrin beta chain, non-erythrocytic 1
  Labeled Peptide: 1706-1717
Protein Q12931 TRAP1 Heat shock protein 75 kDa, mitochondrial
  Labeled Peptide: 603-619
Protein Q92922 SMARCC1 SWI/SNF complex subunit SMARCC1
  Labeled Peptide: 894-905
Protein RBC2 Replication (P35250)
  Labeled Peptide: 211-230
Protein RCN1 Reticulocalbin-1 (Q15293)
  Labeled Peptide: 91-105
Protein RPL30 60S ribosomal protein L30, residues of the probe-labeled peptide
  Labeled Peptide: 58-68
Protein STAG2 Cohesin subunit SA-2, residues of the probe-modified peptide
  Labeled Peptide: 273-290
Protein TIMM44 Mitochondrial import inner membrane translocase su, residues of the probe-modified peptide
  Labeled Peptide: 428-439
Residues of probe-labeled peptide on TUBA4A Tubulin alpha-4A chain, Accession # P68366
  Labeled Peptide: 340-352
